≈ marks a conversion by molar mass, not a printed value. Where two headings read alike, the source gives them in different places.
What was measured:
Mtb H37Rv = assay: Microplate Alamar Blue Assay (MABA), Mtb H37Rv; type: cell-based, Mycobacterium tuberculosis; details: for MIC: MABA, one-week incubation
InhA = target: T1, InhA (Mycobacterium tuberculosis, UniProt P9WGR1); assay: InhA inhibition (NADH oxidation at 340 nm, DDCoA substrate); type: biochemical; details: for inhibition at 50 µM: at 50 μM concentration, NI: No inhibition
T1 construct: made in house

[1] = MTT cytotoxicity assay, HEK 293; type: cell-based; details: human, HEK 293 cells, HEK 293, MTT, triplicate, read-out: Toxicity IC50
Source text: (§1) 2.2.2. Assay for Host Cytotoxicity Determination
(§2) The MTT (3-(4,5-dimethylthiazol-2-yl)-2,5-diphenyltetrazolium bromide) assay was applied to determine the cytotoxicity of the synthesized molecules against Human Embryonic Kidney cells (HEK 293) and adenocarcinomic human alveolar basal epithelial cells (A549) cell lines, obtained from the American Type Culture Collection (ATCC) with the accession numbers ATCC CRL-1573 and ATCC CCL-185, respectively. […] A vehicle control containing 1% DMSO in culture medium without any compound was included to account for any solvent-related effects. Cells were seeded at a density of 1 × 10^4 cells per well in a sterile 96-well microtiter plate and incubated for 24 h to allow attachment. Following this, the compounds were added in ten-fold serial dilutions ranging from 100 μM to 0.001 μM, and the plates were incubated for 48 h at 37 °C with 5% CO2.
(§3) After incubation, the medium was removed and replaced with 10 μL of MTT solution (5 mg/mL) in each well, followed by a 3 h incubation under the same conditions. The MTT reagent was then discarded, and 100 μL of DMSO was added to each well to solubilize the formazan crystals. Absorbance was measured at 580 nm using a Thermo Scientific Varioskan LUX microplate reader, with blanks subtracted from each value. All experiments were performed in three independent biological replicates, for every concentration tested. The IC50 values were calculated using GraphPad Prism 10.6.0 [28, 29].

[2] = MTT cytotoxicity assay, A549; type: cell-based; details: human, A549 cells, triplicate, read-out: Toxicity IC50
Source text: as §1, §2, §3

[3] = Mycobacterium tuberculosis, H37RV, 168 h

T1 sequence (P9WGR1 whole entry, looked up): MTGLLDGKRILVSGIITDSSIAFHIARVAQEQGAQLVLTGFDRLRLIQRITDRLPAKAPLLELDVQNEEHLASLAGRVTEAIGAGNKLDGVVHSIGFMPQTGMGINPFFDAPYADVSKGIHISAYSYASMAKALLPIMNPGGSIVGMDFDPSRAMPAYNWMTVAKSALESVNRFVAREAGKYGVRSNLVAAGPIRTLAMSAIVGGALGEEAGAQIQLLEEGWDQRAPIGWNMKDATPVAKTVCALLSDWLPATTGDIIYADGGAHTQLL

| SMILES | MIC50 (Mtb H37Rv; Mycobacterium tuberculosis) | MIC (Mtb H37Rv; [3]) | inhibition at 50 µM (InhA) | MIC (Mtb H37Rv) | IC50 at 48 h [1] | IC50 at 48 h [2] | IC50 (InhA; read-out: IC50 against InhA enzyme) | MIC50 (Mtb H37Rv) |
| --- | --- | --- | --- | --- | --- | --- | --- | --- |
| NNC(=O)c1ccncc1 [INH, isonicotinic acid hydrazide, reference compound] | 0.23 ± 0.04 µM (≈ 0.0315 µg/mL) | 0.39 µM (≈ 0.0535 µg/mL) | – | – | – | – | – | – |
| O=C(NN=Cc1ccc(N2CCN(c3ccccc3)CC2)cc1)c1ccncc1 [IP1, N′-(4-(4-Phenylpiperazin-1-yl)benzylidene)isonicotinohydrazide] | – | 50 µM (≈ 19.3 µg/mL) | < 10% | – | – | – | – | – |
| O=C(NN=Cc1ccc(N2CCN(c3ccccc3F)CC2)cc1)c1ccncc1 [IP2, N′-(4-(4-(2-Fluorophenyl)piperazin-1-yl)benzylidene)isonicotinohydrazide] | – | > 100 µM | 19% | >100 µM | – | – | – | – |
| O=C(NN=Cc1ccc(N2CCN(c3ccc(Cl)cc3)CC2)cc1)c1ccncc1 [IP3, N′-(4-(4-(4-Chlorophenyl)piperazin-1-yl)benzylidene)isonicotinohydrazide] | – | 50 µM (≈ 21 µg/mL) | 21% | – | – | – | – | – |
| O=C(NN=Cc1ccc(N2CCN(c3ccc(Br)cc3)CC2)cc1)c1ccncc1 [IP4, N′-(4-(4-(4-Bromophenyl)piperazin-1-yl)benzylidene)isonicotinohydrazide] | – | 100 µM (≈ 46.4 µg/mL) | < 10% | – | – | – | – | – |
| Cc1ccc(N2CCN(c3ccc(C=NNC(=O)c4ccncc4)cc3)CC2)c(C)c1 [IP5, N′-(4-(4-(2,4-Dimethylphenyl)piperazin-1-yl)benzylidene)isonicotinohydrazide] | – | 50 µM (≈ 20.7 µg/mL) | 16% | – | – | – | – | – |
| O=C(NN=Cc1ccc(N2CCN(c3ccc(C(F)(F)F)cc3)CC2)cc1)c1ccncc1 [IP6, N′-(4-(4-(4-(Trifluoromethyl)phenyl)piperazin-1-yl)benzylidene)isonicotinohydrazide] | – | 12.5 µM (≈ 5.67 µg/mL) | 37% | – | – | – | – | – |
| COc1ccc(N2CCN(c3ccc(C=NNC(=O)c4ccncc4)cc3)CC2)cc1 [IP7, N′-(4-(4-(4-Methoxyphenyl)piperazin-1-yl)benzylidene)isonicotinohydrazide] | 0.74 ± 0.1 µM (≈ 0.307 µg/mL) | ≤ 0.78 µM | 10% | – | – | – | – | – |
| O=C(NN=Cc1ccc(N2CCN(c3ccccn3)CC2)cc1)c1ccncc1 [IP8, N′-(4-(4-(Pyridin-2-yl)piperazin-1-yl)benzylidene)isonicotinohydrazide] | 0.31 ± 0.21 µM (≈ 0.12 µg/mL) | ≤ 0.78 µM | < 10% | – | > 100 µM | > 100 µM | – | – |
| O=C(NN=Cc1ccc(N2CCN(c3ncccn3)CC2)cc1)c1ccncc1 [IP9, N′-(4-(4-(Pyrimidin-2-yl)piperazin-1-yl)benzylidene)isonicotinohydrazide] | 0.79 ± 0.23 µM (≈ 0.306 µg/mL) | ≤ 0.78 µM | < 10% | – | > 100 µM | > 100 µM | – | – |
| CN1CCN(c2ccc(C=NNC(=O)c3ccncc3)cc2)CC1 [IP10, N′-(4-(4-Methylpiperazin-1-yl)benzylidene)isonicotinohydrazide] | 0.31 ± 0.04 µM (≈ 0.1 µg/mL) | ≤ 0.78 µM | 30% | – | > 100 µM | > 100 µM | – | – |
| O=C(NN=Cc1ccc(N2CCN(C3CCCCC3)CC2)cc1)c1ccncc1 [IP11, N′-(4-(4-Cyclohexylpiperazin-1-yl)benzylidene)isonicotinohydrazide] | 0.29 ± 0.05 µM (≈ 0.114 µg/mL) | ≤ 0.78 µM | 81% | – | > 100 µM | > 100 µM | 26.4 ± 3.97 µM | 0.29 µM (≈ 0.114 µg/mL) |
| CCOC(=O)C1CCN(c2ccc(C=NNC(=O)c3ccncc3)cc2)CC1 [IP12, Ethyl 1-(4-((2-isonicotinoylhydrazono)methyl)phenyl)piperidine-4-carboxylate] | 0.47 ± 0.05 µM (≈ 0.179 µg/mL) | ≤ 0.78 µM | 17% | – | > 100 µM | > 100 µM | – | – |
| NC(=O)C1CCN(c2ccc(C=NNC(=O)c3ccncc3)cc2)CC1 [IP13, 1-(4-((2-Isonicotinoylhydrazono)methyl)phenyl)piperidine-4-carboxamide] | 0.53 ± 0.24 µM (≈ 0.186 µg/mL) | ≤ 0.78 µM | < 10% | – | > 100 µM | > 100 µM | – | – |
